Bridges are numbered along the chain shown (N, C = ends). Where no end group is shown, it is not given here.
How the values were obtained:
glioma F98 cells = assay: Cell penetration of Cy5-labeled peptides by flow cytometry (FACS); type: cell-based, rat; settings: 2 h; for fold decrease in cell penetration efficacy relative to MCaUF1-9-C-Cy5: 3 µM, flow cytometry
Experimental: Undifferentiated malignant glioma rat (F98) cell line (from ATCC) was maintained at 37 °C in 5% CO2 in DMEM/F-12 nutrient medium (Invitrogen, Cergy Pontoise, France) supplemented with 2% (v/v) heat-inactivated fetal bovine serum (Invitrogen) and 100 µg/mL streptomycine and 100 units/mL penicillin (Invitrogen).
F98 cells were incubated with various concentrations of Cy5-labeled peptides in DMEM/F-12 culture medium without serum at 37 °C for 2 h. The cells were then washed with PBS to remove excess extracellular peptide and treated with 0.48 mM versene (Invitrogen) for 5 min at 37 °C to detach cells from the surface, and centrifuged at 200 g in DMEM/F-12 culture medium before suspension in PBS. For experiments concerning endocytosis inhibitors, F98 cells were initially preincubated in DMEM/F-12 culture medium without serum for 30 min at 37 °C with different inhibitors of endocytosis: (i) 100 µM amiloride, (ii) 5 µg/mL cytochalasin D (10 µM), (iii) 20 µM nocodazole, or (iv) 5 mM methyl-β-cyclodextrin (all from Sigma, Lyon, France). The cells were then incubated for 2 h at 37 °C with 1 µM MCaUF1-9-C-Cy5 in the presence of each drug. Flow cytometry analyses were performed with live cells using an Accuri C6 flow cytometer (BD Biosciences, Le Pont de Claix, France). Data were obtained and analyzed using CFlow Sampler (BD Biosciences). Live cells were gated by forward/side scattering from a total of 10,000 events.

[1] = high temperatures up to 100 °C or extreme pH values; cited from earlier work
From the text: Maurocalcine (MCa) is a 33 amino acid residue peptide that was isolated in 2000 from the venom of the Tunisian chactid scorpion Scorpio maurus palmatus. It folds according to an ‘Inhibitor Cystine Knot’ (ICK) motif and contains three disulfide bridges connected by the following pattern: C1-C4, C2-C5 and C3-C6 [3]. Based on high amino acid sequence and pharmacological target similarities, MCa belongs to a larger family of scorpion toxins that also includes imperatoxin A (from Pandinus imperator), opicalcine 1 and opicalcine 2 (from Opistophthalmus carinatus), hemicalci ...

[2] = cited from earlier work
From the text: Even if the mechanism(s) of penetration of CPP are subject to debate, because of the rapidity of action of MCa on the ryanodine receptor, it appears clearly that one way of penetration of MCa can be membrane translocation. Furthermore, MCa has the ability to bind onto glycosaminoglycans, including heparin and heparan sulfates, with micromolar affinity.

Substance: MCaUF1-9(A3)-C-Cy5: Abu3 replaced by Ala
- fold decrease in cell penetration efficacy relative to MCaUF1-9-C-Cy5 (glioma F98 cells): 1.08 fold

Substance: MCaUF1-9(Q3)-C-Cy5: Abu3 replaced by Gln
- fold decrease in cell penetration efficacy relative to MCaUF1-9-C-Cy5 (glioma F98 cells): 2.94 fold
- cell penetration compared with TAT-C-Cy5 as standard (glioma F98 cells; dose-response by flow cytometry): behaved similarly to TAT

Substance: Maurocalcine (GDCLPHLKLCKENKDCCSKKCKRRGTNIEKRCR; disulfide 10-21, 16-32, 3-17; UniProt P60254 1-33, looked up) [MCa]
- stability of structure against denaturation [1]: cannot be denatured
- affinity of binding onto glycosaminoglycans [2]: micromolar

Source: article PMC3816693, “Cell Penetration Properties of a Highly Efficient Mini Maurocalcine Peptide” (Pharmaceuticals, 2013)
